# Experimental data from the supplement of paper PMC10307832.
# Legend:
# Assay in all cases: relative viability (nuclei count vs DMSO), 5 days (fraction); higher = more cells survive
# Midostaurin + OSI-027 = compound: CO[C@@H]1[C@H](N(C)C(=O)c2ccccc2)C[C@H]2O[C@]1(C)n1c3ccccc3c3c4c(c5c6ccccc6n2c5c31)C(=O)NC4 [Midostaurin] + COc1cccc2cc(-c3nc([C@H]4CC[C@H](C(=O)O)CC4)n4ncnc(N)c34)[nH]c12 [OSI-027] (partner 0.5 µM)
# Method in brief: (§1)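 Medians of duplicate plates are given as relative viability. That measure is the nuclei count in treated wells divided by the count in vehicle wells. Counts were taken on 4× images of lung cancer cell lines in 1536-well plates, 5 days after pin-tool dosing the day after seeding with one drug alone or a fixed anchor-drug dose plus five library-drug doses (not always all listed) in √10 steps.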
# Midostaurin + Crizotinib = compound: CO[C@@H]1[C@H](N(C)C(=O)c2ccccc2)C[C@H]2O[C@]1(C)n1c3ccccc3c3c4c(c5c6ccccc6n2c5c31)C(=O)NC4 [Midostaurin] + C[C@@H](Oc1cc(-c2cnn(C3CCNCC3)c2)cnc1N)c1c(Cl)ccc(F)c1Cl [Crizotinib] (partner 1 µM)
# Method in brief: as §1
# Midostaurin + Dasatinib = compound: CO[C@@H]1[C@H](N(C)C(=O)c2ccccc2)C[C@H]2O[C@]1(C)n1c3ccccc3c3c4c(c5c6ccccc6n2c5c31)C(=O)NC4 [Midostaurin] + Cc1nc(Nc2ncc(C(=O)Nc3c(C)cccc3Cl)s2)cc(N2CCN(CCO)CC2)n1 [Dasatinib] (partner 0.075 µM)
# Method in brief: as §1
# Midostaurin + Decitabine = compound: CO[C@@H]1[C@H](N(C)C(=O)c2ccccc2)C[C@H]2O[C@]1(C)n1c3ccccc3c3c4c(c5c6ccccc6n2c5c31)C(=O)NC4 [Midostaurin] + Nc1ncn([C@H]2C[C@H](O)[C@@H](CO)O2)c(=O)n1 [Decitabine] (partner 2 µM)
# Method in brief: as §1
# [1] = compound: COc1cc(-c2nn([C@H]3CC[C@H](N4CCN(C(C)=O)CC4)CC3)c3ncnc(N)c23)ccc1NC(=O)c1cc2ccccc2n1C + CC(=O)Nc1cccc(-n2c(=O)n(C3CC3)c(=O)c3c(Nc4ccc(I)cc4F)n(C)c(=O)c(C)c32)c1 [Trametinib] (partner 0.02 µM)
# Method in brief: as §1
Cell Line,relative viability (Midostaurin + OSI-027; first compound 0.01 µM),relative viability (Midostaurin + OSI-027; first compound 0.03162 µM),relative viability (Midostaurin + OSI-027; first compound 0.1 µM),relative viability (Midostaurin + OSI-027; first compound 0.3162 µM),relative viability (Midostaurin + Crizotinib; first compound 0.01 µM),relative viability (Midostaurin + Crizotinib; first compound 0.03162 µM),relative viability (Midostaurin + Crizotinib; first compound 0.1 µM),relative viability (Midostaurin + Crizotinib; first compound 0.3162 µM),relative viability (Midostaurin + Dasatinib; first compound 0.01 µM),relative viability (Midostaurin + Dasatinib; first compound 0.03162 µM),relative viability (Midostaurin + Dasatinib; first compound 0.1 µM),relative viability (Midostaurin + Dasatinib; first compound 0.3162 µM),relative viability (Midostaurin + Decitabine; first compound 0.01 µM),relative viability (Midostaurin + Decitabine; first compound 0.03162 µM),relative viability (Midostaurin + Decitabine; first compound 0.1 µM),relative viability (Midostaurin + Decitabine; first compound 0.3162 µM),relative viability ([1]; first compound 0.0128 µM),relative viability ([1]; first compound 0.04048 µM),relative viability ([1]; first compound 0.128 µM),relative viability ([1]; first compound 1.28 µM)
NCI-H1975,0.784,0.838,0.752,0.607,1,0.963,0.863,0.623,0.381,0.374,0.326,0.296,0.368,0.446,0.366,0.363,0.328,0.293,0.349,0.207
CAL-12T,0.779,0.475,0.531,0.307,0.616,0.572,0.646,0.251,0.446,0.395,0.295,0.239,–,–,–,–,0.331,0.289,0.349,0.326
NCI-H1623,0.455,0.471,0.465,0.561,–,–,–,–,0.53,0.594,0.507,0.652,–,–,–,–,–,–,–,–
HCC-44,–,0.501,0.529,0.401,0.747,0.787,0.697,0.627,–,–,–,–,0.899,0.972,0.989,0.997,1.19,0.716,1.07,1.03
EKVX,0.786,0.616,0.674,0.657,1.07,0.988,0.868,0.929,0.696,0.598,0.468,0.456,0.312,0.312,0.353,0.349,0.406,0.236,0.305,0.236
NCI-H1651,0.707,0.78,0.713,0.864,0.916,0.85,0.918,0.889,0.322,0.488,0.408,0.446,0.612,0.596,0.696,0.649,0.843,0.832,0.79,0.771
NCI-H1944,0.385,0.399,0.416,0.411,1.07,1.08,1,1.1,0.222,0.227,0.234,0.222,0.463,0.439,0.375,0.394,0.455,0.274,0.393,0.295
NCI-H1703,–,–,–,–,0.73,0.569,0.684,0.221,–,–,–,–,–,–,–,–,–,–,–,–
Calu-6,–,–,–,–,0.685,0.768,0.859,0.617,–,–,–,–,–,–,–,–,–,–,–,–
EBC-1,–,–,–,–,0.164,0.231,0.197,0.2,–,–,–,–,–,–,–,–,–,–,–,–
SW 1573,0.619,0.82,0.581,0.748,0.704,1.01,0.782,0.631,0.534,0.548,0.456,0.161,0.52,0.741,0.524,0.476,0.52,0.556,0.492,0.477
A-427,0.449,0.467,0.434,0.512,0.949,0.794,0.735,0.707,0.726,0.63,0.607,0.704,0.574,0.6,0.529,0.547,0.82,0.462,0.759,0.711
NCI-H2347,0.453,0.35,0.365,0.38,0.678,0.684,0.802,0.808,0.328,0.305,0.281,0.327,0.599,0.584,0.567,0.611,0.292,0.236,0.263,0.225
NCI-H1355,0.431,0.425,0.39,0.492,0.965,1.01,0.987,1,0.796,0.777,0.743,0.818,0.361,0.386,0.346,0.348,0.416,0.313,0.387,0.447
NCI-H358,0.894,0.73,0.788,0.776,0.528,0.596,0.563,0.292,0.177,0.124,0.15,0.208,0.228,0.236,0.231,0.25,0.153,0.125,0.131,0.115
PC-3 [JPC-3],0.718,0.579,0.78,0.806,0.99,0.824,0.966,0.943,0.952,0.893,1.07,1.01,0.703,0.815,0.839,0.94,0.746,0.705,0.678,0.802
NCI-H2228,0.652,0.603,0.687,0.703,0.662,0.434,0.361,0.509,0.501,0.622,0.534,0.526,–,–,–,–,0.448,0.146,0.539,0.377
HOP-62,0.779,0.754,0.947,0.686,0.846,0.624,0.988,1.15,0.674,0.675,0.643,0.509,0.203,0.25,0.246,0.227,0.428,0.173,0.376,0.296
HARA,0.672,0.4,0.516,0.757,0.902,0.977,0.86,0.958,0.262,0.22,0.269,0.283,0.584,0.528,0.539,0.591,0.617,0.273,0.56,0.418
